Numbered stars: 1 amine (or outer) side, 2 acyl side, 3 side chain; on linkers, the order of the positions; unused ones are H or OH. Bridge positions count the residues as written; N and C are the ends. Square brackets hold non-standard residues; d marks the D form. Side chains are listed from the residue outwards. Peptide text beside a SMILES is read from it. * marks the point of attachment. Shikimoyl = O=C(C1=C[C@@H](O)[C@@H](O)[C@H](O)C1)*; Cyclopropanecarbonyl(1-CN) = N#CC1(C(=O)*)CC1; Pyrazinoyl(5-oxo-4H) = O=C(c1c[nH]c(=O)cn1)*; Benzoyl(3,5-diOMe) = COc1cc(OC)cc(C(=O)*)c1; Isoxazole3carbonyl(5-Me) = Cc1cc(C(=O)*)no1; 1,2,3Thiadiazole5CO(4-Me) = Cc1nnsc1C(=O)*; Benzoyl(3-CF3) = O=C(c1cccc(C(F)(F)F)c1)*; Tetrahydropyran4carbonyl = O=C(C1CCOCC1)*; Isoorotoyl = O=C(c1c[nH]c(=O)[nH]c1=O)*; Nicotinoyl(6-OMe) = COc1ccc(C(=O)*)cn1; Indane2carbonyl = O=C(C1Cc2ccccc2C1)*; Acetyl(4-pyridyl) = O=C(Cc1ccncc1)*; Benzoyl(4-OMe) = COc1ccc(C(=O)*)cc1; 2Thenoyl(5-Cl) = O=C(c1ccc(Cl)s1)*; Benzoyl(3-Cl) = O=C(c1cccc(Cl)c1)*; Cyclohexylacetyl = O=C(CC1CCCCC1)*; Pyrazinecarbonyl = O=C(c1cnccn1)*; Phenoxyacetyl = O=C(COc1ccccc1)*; X10 = O=C(c1cc(-c2ccco2)[nH]n1)*; Pentanoyl(4-Me) = CC(C)CCC(=O)*; X5 = O=C(c1cc2cc(Cl)ccc2[nH]1)*; X14 = O=C(C1(c2ccccc2)CCCCC1)*; Cysteamide = C(CS[*:3])N[*:1]; X3 = O=C(Cc1c[nH]c2ccccc12)*; X6 = O=C(c1ccc2nc[nH]c2c1)*; X8 = O=C(c1ccc(=O)[nH]n1)*; Ethoxyacetyl = CCOCC(=O)*; Isovaleryl = CC(C)CC(=O)*; X7 = CC(C)=CCCC(C)CC(=O)*; MeOSuc = COC(=O)CCC(=O)*; X1 = O=C(/C=C/c1ccccc1)*; 2Furoyl = O=C(c1ccco1)*; Dap = NC[C@H](N)C(=O)O; X15 = O=C(c1cc[nH]n1)*; Inp = O=C(O)C1CCNCC1; Bz = O=C(c1ccccc1)*; Ms = CS(=O)(=O)*; Mpa = O=C(O)CCS
target: MDM2 (Homo sapiens, UniProt Q00987); assay: MDM2 binding screen: displacement of fluorescent p53 peptide probe FP53 (fluorescence polarization); details: 10 µM macrocycle concentration; crude acylated macrocycle (scaffold Mpa-AA1-AA2-AA3 x carboxylic acid); p53-based fluorescent peptide, human MDM2
Sequence (Q00987 whole entry, the tested form may be a part): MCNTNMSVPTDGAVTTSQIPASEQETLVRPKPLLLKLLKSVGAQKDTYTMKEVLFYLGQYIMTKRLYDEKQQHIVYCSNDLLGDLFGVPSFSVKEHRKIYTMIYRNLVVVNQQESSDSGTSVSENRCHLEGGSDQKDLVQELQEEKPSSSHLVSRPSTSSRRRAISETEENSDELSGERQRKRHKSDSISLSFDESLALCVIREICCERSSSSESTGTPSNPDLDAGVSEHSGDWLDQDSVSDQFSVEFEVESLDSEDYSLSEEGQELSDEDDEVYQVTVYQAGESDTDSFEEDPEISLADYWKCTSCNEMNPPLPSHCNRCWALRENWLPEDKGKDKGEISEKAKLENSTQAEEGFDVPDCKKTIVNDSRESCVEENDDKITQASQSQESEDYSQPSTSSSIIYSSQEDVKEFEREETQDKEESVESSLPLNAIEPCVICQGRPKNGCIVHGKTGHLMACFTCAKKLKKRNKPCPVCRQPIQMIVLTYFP
How it was run: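 Macrocycle reaction products at a final 10 µM were tested for displacement of a p53-based fluorescent peptide from human MDM2. Fluorescence anisotropy (ex 485/em 535 nm) was read once per macrocycle at 25 °C.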

| fraction fluorescent probe displaced | Structure (SMILES) |
| --- | --- |
| 0.08617 | O=C(NC[C@@H]1NC(=O)[C@@H]2CCCN2C(=O)CCSSCCNC(=O)[C@H](Cc2ccccc2)NC1=O)c1cc2cc(Cl)ccc2[nH]1 [X-B1-D3-F + A39] ([Mpa]P[Dap](X5)F-Cysteamide; disulfide 1-C) |
| 0.01122 | O=C(NC[C@@H]1NC(=O)[C@@H]2CCCN2C(=O)CCSSCCNC(=O)[C@H](Cc2ccccc2)NC1=O)C1CCOCC1 [X-B1-D3-F + A44] ([Mpa]P[Dap](Tetrahydropyran4carbonyl)F-Cysteamide; disulfide 1-C) |
| 0 | N#CC1(C(=O)NC[C@@H]2NC(=O)[C@@H]3CCCN3C(=O)CCSSCCNC(=O)[C@H](Cc3ccccc3)NC2=O)CC1 [X-B1-D3-F + A56] ([Mpa]P[Dap](Cyclopropanecarbonyl(1-CN))F-Cysteamide; disulfide 1-C) |
| -0.1145 | CS(=O)(=O)N1CCC(C(=O)NC[C@@H]2NC(=O)[C@@H]3CCCN3C(=O)CCSSCCNC(=O)[C@H](Cc3ccccc3)NC2=O)CC1 [X-B1-D3-F + A57] ([Mpa]P[Dap]([Inp-Ms])F-Cysteamide; disulfide 1-C) |
| 0.03478 | O=C(CC1CCCCC1)NC[C@@H]1NC(=O)[C@@H]2CCCN2C(=O)CCSSCCNC(=O)[C@H](Cc2ccccc2)NC1=O [X-B1-D3-F + A66] ([Mpa]P[Dap](Cyclohexylacetyl)F-Cysteamide; disulfide 1-C) |
| -0.1369 | CC(C)CCC(=O)NC[C@@H]1NC(=O)[C@@H]2CCCN2C(=O)CCSSCCNC(=O)[C@H](Cc2ccccc2)NC1=O [X-B1-D3-F + A68] ([Mpa]P[Dap](Pentanoyl(4-Me))F-Cysteamide; disulfide 1-C) |
| -0.04156 | O=C(Cc1ccncc1)NC[C@@H]1NC(=O)[C@@H]2CCCN2C(=O)CCSSCCNC(=O)[C@H](Cc2ccccc2)NC1=O [X-B1-D3-F + A70] ([Mpa]P[Dap](Acetyl(4-pyridyl))F-Cysteamide; disulfide 1-C) |
| -0.03153 | COc1ccc(C(=O)NC[C@@H]2NC(=O)[C@@H]3CCCN3C(=O)CCSSCCNC(=O)[C@H](Cc3ccccc3)NC2=O)cc1 [X-B1-D3-F + A71] ([Mpa]P[Dap](Benzoyl(4-OMe))F-Cysteamide; disulfide 1-C) |
| 0.06911 | O=C(NC[C@@H]1NC(=O)[C@@H]2CCCN2C(=O)CCSSCCNC(=O)[C@H](Cc2ccccc2)NC1=O)C1=C[C@@H](O)[C@@H](O)[C@H](O)C1 [X-B1-D3-F + A72] ([Mpa]P[Dap](Shikimoyl)F-Cysteamide; disulfide 1-C) |
| 0.03186 | O=C(NC[C@@H]1NC(=O)[C@@H]2CCCN2C(=O)CCSSCCNC(=O)[C@H](Cc2ccccc2)NC1=O)C1Cc2ccccc2C1 [X-B1-D3-F + A76] ([Mpa]P[Dap](Indane2carbonyl)F-Cysteamide; disulfide 1-C) |
| 0.07009 | O=C(NC[C@@H]1NC(=O)[C@@H]2CCCN2C(=O)CCSSCCNC(=O)[C@H](Cc2ccccc2)NC1=O)c1cc(-c2ccco2)[nH]n1 [X-B1-D3-F + A79] ([Mpa]P[Dap](X10)F-Cysteamide; disulfide 1-C) |
| 0.05085 | CC(C)=CCCC(C)CC(=O)NC[C@@H]1NC(=O)[C@@H]2CCCN2C(=O)CCSSCCNC(=O)[C@H](Cc2ccccc2)NC1=O (stereo partly drawn) [X-B1-D3-F + A84] ([Mpa]P[Dap](X7)F-Cysteamide; disulfide 1-C) |
| 0.01272 | O=C(NC[C@@H]1NC(=O)[C@@H]2CCCN2C(=O)CCSSCCNC(=O)[C@H](Cc2ccccc2)NC1=O)c1ccc(=O)[nH]n1 [X-B1-D3-F + A86] ([Mpa]P[Dap](X8)F-Cysteamide; disulfide 1-C) |
| 0.08311 | O=C(/C=C/c1ccccc1)NC[C@@H]1NC(=O)[C@@H]2CCCN2C(=O)CCSSCCNC(=O)[C@H](Cc2ccccc2)NC1=O [X-B1-D3-F + A91] ([Mpa]P[Dap](X1)F-Cysteamide; disulfide 1-C) |
| 0.05512 | COC(=O)CCC(=O)NC[C@@H]1NC(=O)[C@@H]2CCCN2C(=O)CCSSCCNC(=O)[C@H](Cc2ccccc2)NC1=O [X-B1-D3-F + A93] ([Mpa]P[Dap](MeOSuc)F-Cysteamide; disulfide 1-C) |
| 0.6432 | O=C1NCCSSCCC(=O)N2CCC[C@H]2C(=O)N[C@@H](CNC(=O)C2(c3ccccc3)CCCCC2)C(=O)N[C@H]1Cc1ccccc1 [X-B1-D3-F + A98] ([Mpa]P[Dap](X14)F-Cysteamide; disulfide 1-C) |
| 0.09201 | CCOCC(=O)NC[C@@H]1NC(=O)[C@@H]2CCCN2C(=O)CCSSCCNC(=O)[C@H](Cc2ccccc2)NC1=O [X-B1-D3-F + A104] ([Mpa]P[Dap](Ethoxyacetyl)F-Cysteamide; disulfide 1-C) |
| 0.01749 | NC[C@@H]1NC(=O)[C@@H]2CCCN2C(=O)CCSSCCNC(=O)[C@H](Cc2ccccc2)NC1=O [X-B1-D3-F + No Acid] ([Mpa]P[Dap]F-Cysteamide; disulfide 1-C) |

| fraction fluorescent probe displaced | Structure (SMILES) |
| --- | --- |
| -0.005048 | O=C(NC[C@@H]1NC(=O)[C@@H]2CCCN2C(=O)CCSSCCNC(=O)[C@H](Cc2c[nH]c3ccccc23)NC1=O)c1ccccc1 [X-B1-D3-W + A1] ([Mpa]P[Dap](Bz)W-Cysteamide; disulfide 1-C) |
| 0.03807 | O=C(NC[C@@H]1NC(=O)[C@@H]2CCCN2C(=O)CCSSCCNC(=O)[C@H](Cc2c[nH]c3ccccc23)NC1=O)c1cnccn1 [X-B1-D3-W + A2] ([Mpa]P[Dap](Pyrazinecarbonyl)W-Cysteamide; disulfide 1-C) |
| 0.08125 | Cc1cc(C(=O)NC[C@@H]2NC(=O)[C@@H]3CCCN3C(=O)CCSSCCNC(=O)[C@H](Cc3c[nH]c4ccccc34)NC2=O)no1 [X-B1-D3-W + A3] ([Mpa]P[Dap](Isoxazole3carbonyl(5-Me))W-Cysteamide; disulfide 1-C) |
| 0.03512 | COc1cc(OC)cc(C(=O)NC[C@@H]2NC(=O)[C@@H]3CCCN3C(=O)CCSSCCNC(=O)[C@H](Cc3c[nH]c4ccccc34)NC2=O)c1 [X-B1-D3-W + A4] ([Mpa]P[Dap](Benzoyl(3,5-diOMe))W-Cysteamide; disulfide 1-C) |
| 0.05625 | O=C(NC[C@@H]1NC(=O)[C@@H]2CCCN2C(=O)CCSSCCNC(=O)[C@H](Cc2c[nH]c3ccccc23)NC1=O)c1cc[nH]n1 [X-B1-D3-W + A5] ([Mpa]P[Dap](X15)W-Cysteamide; disulfide 1-C) |
| 0.2779 | O=C(NC[C@@H]1NC(=O)[C@@H]2CCCN2C(=O)CCSSCCNC(=O)[C@H](Cc2c[nH]c3ccccc23)NC1=O)c1ccc2nc[nH]c2c1 [X-B1-D3-W + A6] ([Mpa]P[Dap](X6)W-Cysteamide; disulfide 1-C) |
| 0.05096 | CC(=O)NC[C@@H]1NC(=O)[C@@H]2CCCN2C(=O)CCSSCCNC(=O)[C@H](Cc2c[nH]c3ccccc23)NC1=O [X-B1-D3-W + A7] ([Mpa]P[Dap](Ac)W-Cysteamide; disulfide 1-C) |
| 0.1324 | CC(C)CC(=O)NC[C@@H]1NC(=O)[C@@H]2CCCN2C(=O)CCSSCCNC(=O)[C@H](Cc2c[nH]c3ccccc23)NC1=O [X-B1-D3-W + A8] ([Mpa]P[Dap](Isovaleryl)W-Cysteamide; disulfide 1-C) |
| 0.06006 | O=C(NC[C@@H]1NC(=O)[C@@H]2CCCN2C(=O)CCSSCCNC(=O)[C@H](Cc2c[nH]c3ccccc23)NC1=O)c1c[nH]c(=O)cn1 [X-B1-D3-W + A9] ([Mpa]P[Dap](Pyrazinoyl(5-oxo-4H))W-Cysteamide; disulfide 1-C) |
| 0.2362 | COc1ccc(C(=O)NC[C@@H]2NC(=O)[C@@H]3CCCN3C(=O)CCSSCCNC(=O)[C@H](Cc3c[nH]c4ccccc34)NC2=O)cn1 [X-B1-D3-W + A10] ([Mpa]P[Dap](Nicotinoyl(6-OMe))W-Cysteamide; disulfide 1-C) |
| 0.1 | O=C(NC[C@@H]1NC(=O)[C@@H]2CCCN2C(=O)CCSSCCNC(=O)[C@H](Cc2c[nH]c3ccccc23)NC1=O)c1c[nH]c(=O)[nH]c1=O [X-B1-D3-W + A11] ([Mpa]P[Dap](Isoorotoyl)W-Cysteamide; disulfide 1-C) |
| 0.1189 | O=C(Cc1c[nH]c2ccccc12)NC[C@@H]1NC(=O)[C@@H]2CCCN2C(=O)CCSSCCNC(=O)[C@H](Cc2c[nH]c3ccccc23)NC1=O [X-B1-D3-W + A12] ([Mpa]P[Dap](X3)W-Cysteamide; disulfide 1-C) |
| 0.1956 | O=C(COc1ccccc1)NC[C@@H]1NC(=O)[C@@H]2CCCN2C(=O)CCSSCCNC(=O)[C@H](Cc2c[nH]c3ccccc23)NC1=O [X-B1-D3-W + A13] ([Mpa]P[Dap](Phenoxyacetyl)W-Cysteamide; disulfide 1-C) |
| 0.1687 | O=C(NC[C@@H]1NC(=O)[C@@H]2CCCN2C(=O)CCSSCCNC(=O)[C@H](Cc2c[nH]c3ccccc23)NC1=O)c1ccc(Cl)s1 [X-B1-D3-W + A14] ([Mpa]P[Dap](2Thenoyl(5-Cl))W-Cysteamide; disulfide 1-C) |
| 0.02409 | Cc1nnsc1C(=O)NC[C@@H]1NC(=O)[C@@H]2CCCN2C(=O)CCSSCCNC(=O)[C@H](Cc2c[nH]c3ccccc23)NC1=O [X-B1-D3-W + A15] ([Mpa]P[Dap](1,2,3Thiadiazole5CO(4-Me))W-Cysteamide; disulfide 1-C) |
| 0.06294 | O=C(NC[C@@H]1NC(=O)[C@@H]2CCCN2C(=O)CCSSCCNC(=O)[C@H](Cc2c[nH]c3ccccc23)NC1=O)c1ccco1 [X-B1-D3-W + A16] ([Mpa]P[Dap](2Furoyl)W-Cysteamide; disulfide 1-C) |
| 0.2671 | O=C(NC[C@@H]1NC(=O)[C@@H]2CCCN2C(=O)CCSSCCNC(=O)[C@H](Cc2c[nH]c3ccccc23)NC1=O)c1cccc(Cl)c1 [X-B1-D3-W + A17] ([Mpa]P[Dap](Benzoyl(3-Cl))W-Cysteamide; disulfide 1-C) |
| -0.006211 | O=C(NC[C@@H]1NC(=O)[C@@H]2CCCN2C(=O)CCSSCCNC(=O)[C@H](Cc2c[nH]c3ccccc23)NC1=O)c1cccc(C(F)(F)F)c1 [X-B1-D3-W + A18] ([Mpa]P[Dap](Benzoyl(3-CF3))W-Cysteamide; disulfide 1-C) |

Source: PMC9250534, “Synthesis and direct assay of large macrocycle diversities by combinatorial late-stage modification at picomole scale” (Nature Communications, 2022)
